The record followed here is patent publication US20240174690A1, “ANNULATED 2-AMINO-3-CYANO THIOPHENES AND DERIVATIVES FOR THE TREATMENT OF CANCER” (BOEHRINGER INGELHEIM INTERNATIONAL GMBH, priority 2021, published 2024).

In assay [1] the test system is MKN1 cells. As to the kind of experiment: MKN1 CTG proliferation assay (120 h) (gastric cancer, wt amplified). The assay is classed as cell-based. The note with it: Homo sapiens. In short, it runs like this: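 MKN1 gastric cancer cells (200–500 per well, RPMI + 10% FCS) given a logarithmic compound dose series and incubated 120 h. Viability by CellTiter-Glo luminescence as percent of DMSO controls. IC50 by four-parameter non-linear regression.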

For assay [2], the system named is NCI-H2122 cells. Description: NCI-H2122 CTG proliferation assay (120 h) (NSCLC, G12C). Type of assay: cell-based. The note with it: Homo sapiens. The method in brief: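 NCI-H2122 cells (KRAS G12C NSCLC), 200 per well in RPMI with 10% FCS, were dosed with compound on day 1 and incubated 120 h at 37 °C. Viability was read by CellTiter-Glo luminescence as percent of DMSO control, and IC50 was fitted with a four-parameter model.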

The mark [3] stands for this setting: MKN-1, assay 1, CTG 120 h, read-out: MKN1 (assay 1) IC50.
The mark [4] stands for this setting: MKN-1, assay 3, CTG 120 h, read-out: MKN1 (assay 3) IC50.
Where [5] appears, read: MKN-1, assay 2, CTG 120 h, read-out: MKN1 (assay 2) IC50.

SMILES strings stand for the structures. pIC50: −log10 of the molar value. Like-named read-outs stand apart in the source and are kept apart here.

Consider `CC(C)NC(=O)Cc1ccn(-c2cc(O[C@@H](C)[C@@H]3CCCN3C)nc(-c3noc4c3CCC[C@@]43CCCc4sc(N)c(C#N)c43)n2)n1` [II-182], for which the pIC50 was 7.62 in assay [1] (setting [3]) and 7.92 in assay [1] (setting [4]). In assay [2], `C[C@H](Oc1cc(N2CCN(C)C3(CC3)C2)nc(-c2noc3c2CCC[C@@]32CCCc3sc(N)c(C#N)c32)n1)[C@@H]1CCCN1C` [II-171] had a pIC50 of 5.51.

`C[C@H](Oc1cc(-n2cc(C(=O)N(C)C)nn2)nc(-c2noc3c2CCC[C@@]32CCCc3sc(N)c(C#N)c32)n1)[C@@H]1CCCN1C` [II-132] had a pIC50 in assay [2] of 6.73.

In assay [2], `C[C@H](Oc1cc(N2C[C@@H]3[C@@H](N)[C@@H]3C2)nc(-c2noc3c2CCC[C@@]32CCCc3sc(N)c(C#N)c32)n1)[C@@H]1CCCN1C` [II-167] gave a pIC50 of 5.01. On to `C[C@H](Oc1cc(-n2nccc2-c2ccncc2)nc(-c2noc3c2CCC[C@@]32CCCc3sc(N)c(C#N)c32)n1)[C@@H]1CCCN1C` [II-131], for which the pIC50 in assay [2] is 6.17.

Take `CO[C@H]1CCN(C)[C@@H]1[C@H](C)Oc1cc(-n2ccc(C(N)=O)n2)nc(-c2noc3c2CCC[C@@]32CCCc3sc(N)c(C#N)c32)n1` [II-201]: the pIC50 in assay [1] (setting [3]) is 7.70; in assay [1] (setting [4]) it was 7.85. In assay [2], `C[C@H](Oc1cc(-c2ccn(C)n2)nc(-c2noc3c2CCC[C@@]32CCCc3sc(N)c(C#N)c32)n1)[C@@H]1C[C@H](F)CN1C` [II-144] showed a pIC50 of 5.43.

Regarding `CO[C@H]1CCN(C)[C@@H]1[C@H](C)Oc1cc(N2CCNC3(CC3)C2)nc(-c2noc3c2CCC[C@@]32CCCc3sc(N)c(C#N)c32)n1` [II-184], the pIC50 was 6.64 in assay [1] (setting [5]) and 7.17 in assay [1] (setting [4]). For `C[C@H](Oc1cc(-n2ccc(-c3cn(C4CCOCC4)nn3)n2)nc(-c2noc3c2CCC[C@@]32CCCc3sc(N)c(C#N)c32)n1)[C@@H]1CCCN1C` [II-210], in assay [1] (setting [4]), the pIC50 was 7.43. Turning to `C[C@@H]1CN(c2cc(O[C@@H](C)[C@@H]3CCCN3C)nc(-c3noc4c3CCC[C@@]43CCCc4sc(N)c(C#N)c43)n2)CCN1` [II-161], the pIC50 in assay [2] is 5.31. For the compound `C[C@H](Oc1cc(-n2cc3c(n2)CN(C)C3)nc(-c2noc3c2CCC[C@@]32CCCc3sc(N)c(C#N)c32)n1)[C@@H]1CCCN1C` [II-174], the pIC50 in assay [1] (setting [5]) was 6.47. On to `CO[C@@H]1C[C@@H]([C@H](C)Oc2cc(N3CCNC4(CC4)C3)nc(-c3noc4c3CCC[C@@]43CCCc4sc(N)c(C#N)c43)n2)N(C)C1` [II-187], for which the pIC50 in assay [1] (setting [5]) was 6.42; in assay [1] (setting [4]), 6.45. In assay [2], `C[C@H](Oc1cc(-n2cnc(C(=O)N(C)C)c2)nc(-c2noc3c2CCC[C@@]32CCCc3sc(N)c(C#N)c32)n1)[C@@H]1CCCN1C` [II-126] had a pIC50 of 5.57. Same read-out and setting: the value for `C[C@H](Oc1cc(-n2cc3c(n2)CCN(C)C3)nc(-c2noc3c2CCC[C@@]32CCCc3sc(N)c(C#N)c32)n1)[C@@H]1CCCN1C` [II-141] was 5.55. On to `[2H]C([2H])([2H])N1C[C@H](F)C[C@H]1[C@H](C)Oc1cc(N2CCN(C([2H])([2H])[2H])C3(CC3)C2)nc(-c2noc3c2CCC[C@@]32CCCc3sc(N)c(C#N)c32)n1` [II-207], for which the pIC50 in assay [1] (setting [4]) is 6.11. The compound `C[C@H](Oc1cc([C@H]2CCNC2)nc(-c2noc3c2CCC[C@@]32CCCc3sc(N)c(C#N)c32)n1)[C@@H]1CCCN1C` [II-163] had a pIC50 in assay [2] of 5.35.

`CO[C@H]1CCN(C)[C@@H]1[C@H](C)Oc1cc(-n2ccc(C(=O)N[C@@H]3CCOC3)n2)nc(-c2noc3c2CCC[C@@]32CCCc3sc(N)c(C#N)c32)n1` [II-197]: the pIC50 in assay [1] (setting [4]) is 7.80. `C[C@H](Oc1cc(-n2cc3ccn([C@@H](C)c4ccccn4)c(=O)c3n2)nc(-c2noc3c2CCC[C@@]32CCCc3sc(N)c(C#N)c32)n1)[C@@H]1CCCN1C` [II-205]: in assay [1] (setting [4]), the pIC50 is 7.48. `CC(=O)N1CCN(c2cc(O[C@@H](C)[C@@H]3CCCN3C)nc(-c3noc4c3CCC[C@@]43CCCc4sc(N)c(C#N)c43)n2)CC12CC2` [II-178]: the pIC50 in assay [2] was 6.02. Turning to `CO[C@H]1CCN(C)[C@@H]1[C@H](C)Oc1cc(-n2ccc(C(=O)N[C@H]3CCOC3)n2)nc(-c2noc3c2CCC[C@@]32CCCc3sc(N)c(C#N)c32)n1` [II-198], the pIC50 in assay [1] (setting [4]) was 7.82. The compound `CC(C)N1CCCN(c2cc(-c3ccn(C)n3)nc(-c3noc4c3CCC[C@@]43CCCc4sc(N)c(C#N)c43)n2)[C@@H](C)C1` [II-170] showed a pIC50 in assay [2] of 6.03. In the case of `C[C@H](Oc1cc(N2CCN(C)C3(CCOC3)C2)nc(-c2noc3c2CCC[C@@]32CCCc3sc(N)c(C#N)c32)n1)[C@@H]1C[C@@H](F)CN1C` (stereo partly shown) [II-151], the negative-log IC50 (pIC50) in assay [2] was 5.45. The same measure, in the same setting: under `CC(C)N1CCCN(c2cc(-n3ccnc3)nc(-c3noc4c3CCC[C@@]43CCCc4sc(N)c(C#N)c43)n2)[C@@H](C)C1` [II-169] stands 5.64. Consider `COCCNC(=O)c1ccn(-c2cc(O[C@@H](C)[C@@H]3[C@@H](OC)CCN3C)nc(-c3noc4c3CCC[C@@]43CCCc4sc(N)c(C#N)c43)n2)n1` [II-200], for which, in assay [1] (setting [4]), the pIC50 was 7.96. For the compound `C[C@H](Oc1cc(N2CC3COCC(C2)N3)nc(-c2noc3c2CCC[C@@]32CCCc3sc(N)c(C#N)c32)n1)[C@@H]1CCCN1C` [II-160], the pIC50 in assay [2] was 5.50.

As to `CO[C@H]1CCN(C)[C@@H]1[C@H](C)Oc1cc(-n2ccc(C(=O)N[C@@H](C)c3ccccn3)n2)nc(-c2noc3c2CCC[C@@]32CCCc3sc(N)c(C#N)c32)n1` [II-196], in assay [1] (setting [4]), the pIC50 was 7.77. For the compound `CCN1CCN(c2cc(O[C@@H](C)[C@@H]3C[C@@H](F)CN3C)nc(-c3noc4c3CCC[C@@]43CCCc4sc(N)c(C#N)c43)n2)CC12CC2` [II-185], the pIC50 in assay [1] (setting [5]) was below 6.02; in assay [1] (setting [4]), 5.72. Take `C[C@H](Oc1cc(-n2ccc(-c3cn([C@H]4CCOC4)nn3)n2)nc(-c2noc3c2CCC[C@@]32CCCc3sc(N)c(C#N)c32)n1)[C@@H]1CCCN1C` [II-212]: the pIC50 in assay [1] (setting [4]) is 7.77. With `C[C@H](Oc1cc(-n2ccc(C3(O)COC3)n2)nc(-c2noc3c2CCC[C@@]32CCCc3sc(N)c(C#N)c32)n1)[C@@H]1CCCN1C` [II-189], the pIC50 was 7.72 in assay [1] (setting [3]) and 7.74 in assay [1] (setting [4]). `C[C@H](Oc1cc(-n2cc(-c3cncs3)nn2)nc(-c2noc3c2CCC[C@@]32CCCc3sc(N)c(C#N)c32)n1)[C@@H]1CCCN1C` [II-125] gave a pIC50 in assay [2] of 6.11. `C[C@H](O)Cn1ncc(-c2cc(O[C@@H](C)[C@@H]3CCCN3C)nc(-c3noc4c3CCC[C@@]43CCCc4sc(N)c(C#N)c43)n2)n1` [II-134] had a pIC50 in assay [2] of 5.39. The same measure, in the same setting: under `C[C@H](Oc1cc(-n2cncc3ccnc2-3)nc(-c2onc3c2CCC[C@@]32CCCc3sc(N)c(C#N)c32)n1)[C@@H]1CCCN1C` [I-14] stands 5.54; under `C[C@H]1CNCCCN1c1cc(-n2ccnc2)nc(-c2noc3c2CCC[C@@]32CCCc3sc(N)c(C#N)c32)n1` [II-142], 4.98; under `C[C@H](Oc1cc(-n2cncn2)nc(-c2onc3c2CCC[C@@]32CCCc3sc(N)c(C#N)c32)n1)[C@@H]1CCCN1C` [I-18], 5.75.

In the case of `C[C@H](Oc1cc(-n2cc3ccn([C@@H]4CCOC4)c(=O)c3n2)nc(-c2noc3c2CCC[C@@]32CCCc3sc(N)c(C#N)c32)n1)[C@@H]1CCCN1C` [II-203], the pIC50 was 7.39 in assay [1] (setting [5]) and 7.20 in assay [1] (setting [4]).

On to `CC(C)[C@@H]1CN(c2cc(O[C@@H](C)[C@@H]3CCCN3C)nc(-c3noc4c3CCC[C@@]43CCCc4sc(N)c(C#N)c43)n2)CCN1` [II-166], for which the pIC50 in assay [2] was 5.90. `COCCNC(=O)c1ccn(-c2cc(O[C@@H](C)[C@@H]3CCCN3C)nc(-c3noc4c3CCC[C@@]43CCCc4sc(N)c(C#N)c43)n2)n1` [II-195]: in assay [1] (setting [4]), the pIC50 is 7.66. On the same count and under the same terms, the value for `C[C@H](Oc1cc(-n2cc3ccn([C@H]4CCOC4)c(=O)c3n2)nc(-c2noc3c2CCC[C@@]32CCCc3sc(N)c(C#N)c32)n1)[C@@H]1CCCN1C` [II-202] was 7.57. Turning to `C[C@H](Oc1cc(-c2ccn([C@H]3CCOC3)n2)nc(-c2noc3c2CCC[C@@]32CCCc3sc(N)c(C#N)c32)n1)[C@@H]1CCCN1C` [II-127], the pIC50 in assay [2] was 6.72. Same read-out and setting: under `C[C@H](Oc1cc(N2CCOC2=O)nc(-c2noc3c2CCC[C@@]32CCCc3sc(N)c(C#N)c32)n1)[C@@H]1CCCN1C` [II-143] stands 6.23; under `C[C@H](Oc1cc(N2CCNC[C@]23CCOC3)nc(-c2onc3c2CCC[C@@]32CCCc3sc(N)c(C#N)c32)n1)[C@@H]1CCCN1C` [I-12], 5.48. The compound `C[C@H](Oc1cc(-c2ccn(C[C@H]3CCOC3)n2)nc(-c2noc3c2CCC[C@@]32CCCc3sc(N)c(C#N)c32)n1)[C@@H]1CCCN1C` [II-129] gave a pIC50 in assay [2] of 6.70. On to `C[C@H](Oc1cc(N2Cc3cnn(C)c3C2)nc(-c2onc3c2CCC[C@@]32CCCc3sc(N)c(C#N)c32)n1)[C@@H]1CCCN1C` [I-19], for which, in assay [2], the pIC50 was 5.57.

`C[C@H](Oc1cc(-c2ccn(Cc3ncco3)n2)nc(-c2noc3c2CCC[C@@]32CCCc3sc(N)c(C#N)c32)n1)[C@@H]1CCCN1C` [II-128] had a negative-log IC50 (pIC50) in assay [2] of 6.44. `C[C@H](Oc1cc(N2CCN(C)C3(COC3)C2)nc(-c2noc3c2CCC[C@@]32CCCc3sc(N)c(C#N)c32)n1)[C@@H]1C[C@@H](F)CN1C` [II-148]: the pIC50 in assay [2] is 5.65. Same read-out and setting: under `C[C@H]1CNCCCN1c1cc(-c2ccn(C)n2)nc(-c2noc3c2CCC[C@@]32CCCc3sc(N)c(C#N)c32)n1` [II-140] stands 5.08; under `C[C@H](Oc1cc(N2C[C@H](C)N(C)[C@@H](C)C2)nc(-c2noc3c2CCC[C@@]32CCCc3sc(N)c(C#N)c32)n1)[C@@H]1CCCN1C` [II-173], 5.84; under `CO[C@@H]1C[C@@H]([C@H](C)Oc2cc(-c3cnn(C)n3)nc(-c3onc4c3CCC[C@@]43CCCc4sc(N)c(C#N)c43)n2)N(C)C1` [I-17], 5.37.
